Measurements published in paper PMC9312958, “A Novel and Selective Dopamine Transporter Inhibitor, (S)-MK-26, Promotes Hippocampal Synaptic Plasticity and Restores Effort-Related Motivational Dysfunctions” (Biomolecules, 2022).

Experiments:
[1] = molecular target: T1, hNET (Homo sapiens, UniProt P23975); experiment: Uptake inhibition assay in HEK293 cells expressing hNET; format: cell-based
T1 construct: expressed in transfected cells
Procedure: Human embryonic kidney 293 cells (HEK293 cells) were cultivated in Dulbecco’s Modified Eagle Medium (DMEM), containing 10% heat-inactivated fetal calf serum (FCS; 100 mL/L), streptomycin (100 μg/100 mL) and penicillin ([…]). Geneticin (50 μg/mL) was added to select cells stably expressing the human isoforms of dopamine, norepinephrine and serotonin transporter (hDAT, hNET, and hSERT, respectively) as described earlier. Cell lines were maintained in culture in humidified atmosphere (37 °C, 5% CO2), and passaged when reached 80–90% confluency. Cells expressing the desired transporter were seeded the day before the experiment (40,000 cells per well) or two days before the experiments (20,000 cells per well) onto poly-D-lysine (PDL)-coated 96-well plates.
Uptake inhibition experiments were carried out as reported previously. Ninety-six-well plates containing hDAT-, hNET- or hSERT-expressing cells were washed with Krebs-HEPES buffer (KHB; 25 mM HEPES, 120 mM NaCl, 5 mM KCl, 1.2 mM CaCl2, and 1.2 mM MgSO4 and 5 mM D-glucose, pH = 7.3). Cells were then preincubated with increasing concentrations of the compound diluted in KHB for 6 min. Following the pre-incubation of the cells with the compound, the tritiated substrate (hDAT: 0.15 μM [^3H]DA; hNET: 0.05 μM [^3H]MPP^+; hSERT: 0.1 μM [^3H]5-HT) was added to the wells. The uptake was terminated by removal of tritiated substrate and by washing the cells with ice-cold KHB after 1 min (for hDAT and hSERT) or 3 min (for hNET). Thereafter, 200 μL of Ultima Gold^TM XR scintillation cocktail (PerkinElmer, MA, USA) was added, the plates were shaken and the radioactivity accumulated into the cells determined in a Wal-lac 1450 MicroBeta TriLux Liquid Scintillation Counter & Lumi (GMI, Ramsey, MN, USA). Non- specific tritiated substrate uptake was measured in the presence of 100 μM cocaine (for hDAT and hNET) or 10 μM paroxetine (for hSERT), and subtracted from the data. Uptake in the presence of test drugs was normalized to the uptake in the presence of the vehicle.

[2] = molecular target: T2, hDAT (Homo sapiens, UniProt Q01959); experiment: hDAT radioligand binding assay (CHO cells, [3H]BTCP)
T2 construct: expressed in transfected cells
T2 sequence (Q01959 whole entry): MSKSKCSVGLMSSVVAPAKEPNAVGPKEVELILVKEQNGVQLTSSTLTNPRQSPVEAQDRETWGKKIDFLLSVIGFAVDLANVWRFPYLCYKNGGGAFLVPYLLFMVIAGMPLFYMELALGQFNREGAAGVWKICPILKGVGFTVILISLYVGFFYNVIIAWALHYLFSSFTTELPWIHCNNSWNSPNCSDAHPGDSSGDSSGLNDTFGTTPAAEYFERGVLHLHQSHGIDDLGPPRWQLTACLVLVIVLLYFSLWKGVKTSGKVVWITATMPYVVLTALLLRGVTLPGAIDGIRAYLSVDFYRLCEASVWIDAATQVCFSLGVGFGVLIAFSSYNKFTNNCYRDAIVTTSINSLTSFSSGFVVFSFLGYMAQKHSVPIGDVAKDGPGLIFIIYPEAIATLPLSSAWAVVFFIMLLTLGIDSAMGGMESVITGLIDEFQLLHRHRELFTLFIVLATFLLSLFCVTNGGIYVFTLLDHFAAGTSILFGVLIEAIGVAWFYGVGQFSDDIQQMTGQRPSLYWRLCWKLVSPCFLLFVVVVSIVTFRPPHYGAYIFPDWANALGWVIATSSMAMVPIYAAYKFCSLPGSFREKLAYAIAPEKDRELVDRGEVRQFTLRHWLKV
Procedure: (§1) Binding affinity to the hDAT, hNET and hSERT expressed in CHO cells was evaluated in in vitro radioligand binding assays. Binding assays were conducted according to the standard and validated protocols under conditions defined by the contractor (Eurofins Cerep SA, Celle-’Evescault, France; study number 100054410). Antagonist radioligand assays were conducted for the human norepinephrine, the human dopamine, and the serotonin transporters (using CHO cells), using [^3H]nisoxetine (1 nM), [^3H]BTCP (4 nM), and [^3H]imipramine (2 nM) as ligands and desipramine (1 µM), BTCP (10 µM), and imipramine (10 µM) as non-specific agents, respectively (with scintillation counting as detection method).

[3] = molecular target: T1, hNET; experiment: hNET radioligand binding assay (CHO cells, [3H]nisoxetine)
Procedure: as §1

[4] = tested on: adult male Sprague Dawley rats; experiment: FR5/chow feeding choice task; format: in vivo, rat
Procedure: Pharmacological agents: (S)-MK-26 was obtained from the Lubec Laboratory (University of Vienna, Austria) and dissolved in dimethyl sulfoxide (DMSO) (10%), Tween 80 (15%), and 0.9% saline (75%). The DMSO/Tween 80/saline mixture was administered as the vehicle control. The dose range was selected as 3.75–45.0 mg/kg based on its DAT affinity and pilot studies. It was administered 30 min before testing. TBZ (9,10-dimethoxy3-(2-methylpropyl)-1,3,4,6,7, 11b hexahydrobenzo[a]quinolizin2-one) was obtained from Tocris Bioscience (Ellisville, MO) and was dissolved in DMSO (20%) and 0.9% saline (80%) and was titrated with 1.0 N HCl until the drug was dissolved at a pH of 4.0–4.5. The DMSO/saline solution with equal amounts of HCl was administered as the vehicle control. The selected dose was 1.0mg/kg based on the previous research from our laboratory. It was administered 120 min prior to testing.
FR5/chow feeding choice task: A total of 8 adult male Sprague Dawley rats (Envigo Sprague Dawley, Indianapolis, IN, USA; weights 275–299 g upon arrival) were pair-housed in a colony maintained at 23 °C, with a 12 h light/dark cycle (lights on 07:00). Rats were food deprived to 85% of their free-feeding body weight with modest growth throughout the experiment and water was available ad libitum in their home cages. All the animal protocols were approved by the University of Connecticut Institutional Animal Care and Use Committee, and the experiments were completed according to National Institutes of Health guidelines.
Behavioral sessions were conducted in operant chambers (28 × 23 × 23 cm^3; Med Associates, Fairfax, VT, USA) with 30 min sessions 5 days/week. Rats were initially trained to lever press on magazine training for 3 days, followed by an FR1 schedule for 3 days (high-carbohydrate 45-mg pellets, Bio-Serv, Frenchtown, NJ, USA), and then moved to the FR5 schedule. After 5 weeks of training on the FR5 schedule, lab chow was introduced as the concurrently available choice food (Laboratory Diet, 5P00 Prolab RMH 3000, Purina Mills, St. Louis, MO, USA; typically 15–20 g). At the end of each session, rats were immediately removed from the chambers. The number of lever pressing was recorded and the amount of consumed chow was calculated by weighing the remaining food, including spillage. Rats were trained on the FR5/chow feeding choice task for 5 weeks, after which drug testing began.
To test the effects of (S)-MK-26 on FR5/Chow feeding choice task, trained rats were administered either with TBZ (1.0 mg/kg) or vehicle 120 min before testing, and (S)-MK-26 also with doses of 15.0, 30.0, 45.0 mg/kg or vehicle 30 min before testing, via intraperitoneal (IP) injections on drug testing days. A repeated-measures design was utilized where each rat received each drug treatment in a randomly varied order, once per week. The following five treatment combinations were given: TBZ vehicle + (S)-MK-26 vehicle; 1.0 mg/kg TBZ + (S)-MK-26 vehicle; 1.0 mg/kg TBZ + 15.0 mg/kg (S)-MK-26; 1.0 mg/kg TBZ + 30.0 mg/kg (S)-MK-26; 1.0 mg/kg TBZ + 45.0 mg/kg (S)-MK-26. Next, to see if the effects of lower doses, the following four treatment combinations were given in a repeated measure design: TBZ vehicle + (S)-MK-26 vehicle; 1.0 mg/kg TBZ + (S)-MK-26 vehicle; 1.0 mg/kg TBZ + 3.75 mg/kg (S)-MK-26; 1.0 mg/kg TBZ + 7.5 mg/kg (S)-MK-26.

[5] = 15.0, 30.0 and 45.0 mg/kg i.p. coadministered with 1.0 mg/kg TBZ

T1 sequence (P23975 whole entry): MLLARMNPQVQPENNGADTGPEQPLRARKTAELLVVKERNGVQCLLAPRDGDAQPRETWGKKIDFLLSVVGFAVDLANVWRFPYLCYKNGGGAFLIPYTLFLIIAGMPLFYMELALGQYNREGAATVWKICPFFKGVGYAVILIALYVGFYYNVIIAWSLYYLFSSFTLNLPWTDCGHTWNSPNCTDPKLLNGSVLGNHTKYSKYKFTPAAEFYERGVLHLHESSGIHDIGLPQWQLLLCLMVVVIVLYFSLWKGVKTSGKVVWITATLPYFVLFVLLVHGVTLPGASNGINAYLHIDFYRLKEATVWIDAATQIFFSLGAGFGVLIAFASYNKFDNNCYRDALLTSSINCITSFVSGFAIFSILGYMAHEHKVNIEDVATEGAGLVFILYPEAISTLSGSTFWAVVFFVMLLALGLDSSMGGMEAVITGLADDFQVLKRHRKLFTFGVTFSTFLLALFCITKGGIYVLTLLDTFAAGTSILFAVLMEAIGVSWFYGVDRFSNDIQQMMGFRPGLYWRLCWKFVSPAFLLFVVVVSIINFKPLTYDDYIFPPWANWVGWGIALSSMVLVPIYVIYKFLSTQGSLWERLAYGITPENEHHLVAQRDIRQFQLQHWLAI

## [O-][S@@+](Cc1cncs1)C(c1cccc(Cl)c1)c1cccc(Cl)c1 [(S)-MK-26, (S)-5-(((B(3-chlorophenyl)methyl)sulphinyl)methyl)thiazole]
[1]
  IC50: 63.5 µM
[2]
  Ki: 0.026 µM
[3]
  binding to NET: trifling bindings
[4]; [5]
  effect on TBZ-induced change in chow intake: significantly attenuated the effects of TBZ
  effect on TBZ-induced change in lever pressing: significantly attenuated the effects of TBZ
[4]; comparison with earlier studies
  potency in effort-based choice tests compared to other modafinil analogs: lower potency than (S,S)-CE-158
[4]; low-dose progression 3.75 and 7.5 mg/kg i.p. with 1.0 mg/kg TBZ
  reversal of TBZ effects on lever pressing and chow intake: failed to reverse the effects of TBZ
